The values that follow come from PMC11249632, “Activation of the Calcium-Sensing Receptor by a Subfraction of Amino Acids Contained in Thyroid Drainage Fluid” (ACS Pharmacology & Translational Science, 2024).

Experiment [1] concerns the target T1, calcium-sensing receptor (Homo sapiens, UniProt P41180, R990G).
T1 sequence (P41180 20-1078 R990G): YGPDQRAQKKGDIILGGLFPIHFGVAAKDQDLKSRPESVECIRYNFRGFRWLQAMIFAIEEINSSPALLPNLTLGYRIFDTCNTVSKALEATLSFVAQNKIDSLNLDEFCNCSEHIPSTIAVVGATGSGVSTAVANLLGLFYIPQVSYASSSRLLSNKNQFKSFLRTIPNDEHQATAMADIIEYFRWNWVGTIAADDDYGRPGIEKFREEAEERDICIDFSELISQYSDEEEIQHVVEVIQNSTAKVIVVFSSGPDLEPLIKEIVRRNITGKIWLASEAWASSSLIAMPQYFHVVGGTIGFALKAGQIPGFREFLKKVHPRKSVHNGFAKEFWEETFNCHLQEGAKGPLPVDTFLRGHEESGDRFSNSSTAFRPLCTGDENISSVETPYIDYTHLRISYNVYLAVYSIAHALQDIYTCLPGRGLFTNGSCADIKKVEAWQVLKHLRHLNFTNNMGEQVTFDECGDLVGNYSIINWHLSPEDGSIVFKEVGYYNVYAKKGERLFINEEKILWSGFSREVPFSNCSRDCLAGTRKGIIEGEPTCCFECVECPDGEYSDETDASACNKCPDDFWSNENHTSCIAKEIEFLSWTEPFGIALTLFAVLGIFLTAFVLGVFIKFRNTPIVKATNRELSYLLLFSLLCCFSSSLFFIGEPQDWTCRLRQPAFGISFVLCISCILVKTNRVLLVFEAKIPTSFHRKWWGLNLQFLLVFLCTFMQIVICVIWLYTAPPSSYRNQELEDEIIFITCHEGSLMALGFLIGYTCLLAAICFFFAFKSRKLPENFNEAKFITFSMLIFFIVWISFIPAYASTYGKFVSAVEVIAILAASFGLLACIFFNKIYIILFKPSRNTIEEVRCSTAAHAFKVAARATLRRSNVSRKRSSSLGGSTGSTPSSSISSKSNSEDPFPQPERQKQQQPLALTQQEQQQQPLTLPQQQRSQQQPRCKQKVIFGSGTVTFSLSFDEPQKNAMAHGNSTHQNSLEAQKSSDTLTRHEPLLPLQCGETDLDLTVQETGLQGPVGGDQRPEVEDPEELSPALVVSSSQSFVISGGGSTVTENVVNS
The arrangement: gene CASR.

Experiment [2] has as its target T1, calcium-sensing receptor. As to the kind of experiment: Fura-2 intracellular calcium mobilization, receptor-expressing vs nontransfected HEK293 cells, blocked by NPS-2143. The format is cell-based. Set-up: gene CASR; recombinant human receptor stably expressed in HEK293 cells.
Experiment [3] concerns the target T1, calcium-sensing receptor. As to the kind of experiment: Fura-2 intracellular calcium mobilization in receptor-expressing HEK293 cells; inhibition of Ca2+-mediated activation at neutral pH (IC50 […] at pH ~[…]). The arrangement: gene CASR; recombinant human receptor stably expressed in HEK293 cells. It counts as cell-based. A general note: Calcium flux is commonly read through the fluorescence of an indicator in the cells.

For experiment [4], the target named is T1, calcium-sensing receptor. As to the kind of experiment: Fura-2 intracellular calcium mobilization, receptor-expressing vs nontransfected HEK293 cells. The format is cell-based. Set-up: gene CASR; recombinant human receptor stably expressed in HEK293 cells.

As for `N[C@@H](CCC(=O)N[C@@H](CS)C(=O)NCC(=O)O)C(=O)O` [glutathione], the “Fura-2 intracellular calcium mobilization in receptor-expressing HEK293 cells” value at calcium-sensing receptor [1] is reported as more than 3 mM.

Take `N[C@@H](CCC(=O)O)C(=O)O` [L-glutamate]: the “Fura-2 intracellular calcium mobilization, receptor-expressing vs nontransfected” value at calcium-sensing receptor [2] is ~ 5 mM.

With `CC(C)(Cc1ccc2ccccc2c1)NC[C@@H](O)COc1cccc(Cl)c1C#N` [NPS-2143, 2-chloro-6-[(2R)-2-hydroxy-3-[(2-methyl-1-naphthalen-2-ylpropan-2-yl)amino]propoxy]benzonitrile], the IC50 (as a rule, the concentration that gives 50% inhibition) at calcium-sensing receptor [3] is approximately 0.5 µM.

As to `N[C@@H](CC(=O)O)C(=O)O` [L-aspartate], at calcium-sensing receptor [4], the “Fura-2 intracellular calcium mobilization, receptor-expressing vs nontransfected” value was “Concentration-dependent receptor activation by L-glutamate (A) and L-aspartate (B)”.
